Where no end group is shown, it is not given here.
How the values were obtained:
ARPE-19 cells [1] = experiment: Intracellular co-localization, laser scanning confocal microscopy; format: cell-based, Human; settings: ARPE-19, 1 µg/mL siRNA, serum-free medium, 4 h
Procedure: ARPE-19 cells in the logarithmic growth phase were seeded in confocal dishes with a density of 5000 cells/well and incubated for 24 h with 5% CO2 at 37 °C. After administration with various polyplexes at a final concentration of 1 µg/mL siRNA, the cells were further cultured in serum-free medium for 4 h. Then, the cells were washed with 0.2% (m/v) heparin sodium solution three times, fixed with 4% (m/v) paraformaldehyde solution for 5 min, stained with 1 µg/mL 4’,6-diamidino-2-phenylindole (DAPI) solution for 10 min, and moisturized with 50% (v/v) glycerol.

ARPE-19 cells [2] = experiment: Cellular uptake pathway, dual-label flow cytometry with uptake inhibitors; format: cell-based, Human; settings: ARPE-19, inhibitors of Table S1, n = 3 (Figure S4)
Procedure: (§1) For quantitative analysis of cellular uptake of different formulations, ARPE-19 cells and WERI-Rb-1 cells in the logarithmic growth phase were inoculated in 12-well plates with 50,000 cells in each well (n = 3), as mentioned above. After being incubated with various formulations at a final concentration of 1 µg/mL siRNA, the cells were trypsinized with 0.25% trypsin-EDTA, collected in Eppendorf tubes, and centrifuged at 1000 rpm for 5 min. The precipitated cells were subsequently suspended, washed twice in 200 μL phosphate buffer saline (PBS), and analyzed using a flow cytometer (Beckman, Brea, CA, USA). The percentage of FAM-positive cells in total viable cells was defined as the uptake efficiency. The effects of various inhibitors on cellular uptake were also assessed.
(§2) Table S1. Cellular uptake inhibitors and their function mechanisms
(§3) Inhibitor Final Mechanism of action
(§4) Filipin 20 μg/mL Bind to cholesterol on the cell membrane and inhibit endocytosis
(§5) Mß-CD 300 μg/mL Deplete cholesterol and suppress endocytosis
(§6) Genistein 20 μg/mL Inhibit lipid raft/caveolae mediated endocytosis
(§7) Colchicine 20 μg/mL Inhibit pinocytosis by binding to tubulin to prevent microtubule
(§8) Dynasore 20 μg/mL Inhibit […] in clathrin -mediated endocytosis
(§9) Figure S1. Polyacrylamide gel electrophoresis of primary polyplexes siRNA/PA. The ratio is N/P
(§10) of 3rd generation PAMAM to siRNA. […]

WERI-Rb-1 cells = experiment: as above; format: cell-based, Human; settings: WERI-Rb-1, inhibitors of Table S1, n = 3 (Figure S4)
Procedure: as §1, §2, §3, §4, §5, §6, §7, §8, §9, §10

eyes, retina = settings: in vivo; cited from earlier work
Description: We previously screened out penetratin from several of the most commonly reported cell-penetrating peptides based on the ex vivo permeability in excised cornea and in vivo ocular distribution. In a subsequent study, we optimized wild-type penetratin via amino acid mutation to further improve its permeability, and obtained a series of derivative peptides, which could be used as potential ocular absorption enhancers with low toxicity. […] Therefore, we chose 89WP to ...

| Sequence | internalization by cells (confocal observation) (ARPE-19 cells [1]) | effect of uptake inhibitors on cellular uptake of single fluorescence-labeled material (ARPE-19 cells [2]) | effect of uptake inhibitors on cellular uptake of single fluorescence-labeled material (WERI-Rb-1 cells) | distribution in the eyes after topical instillation (eyes, retina) |
| --- | --- | --- | --- | --- |
| RQIKIWFWWRRMKWKK [89WP-FAM, 5-carboxyfluorescein-labeled 89WP] | could be well internalized by the cells and distributed around the nuclei | did not affect cellular uptake | did not affect cellular uptake | – |
| RQIKIWFWWRRMKWKK [89WP] | – | – | – | showed more distribution in the eyes, especially in the retina |

From PMC10053059, “Intraocular siRNA Delivery Mediated by Penetratin Derivative to Silence Orthotopic Retinoblastoma Gene” (Pharmaceutics, 2023)
